Experimental data from patent US10759797B2, “Pharmaceutically acceptable salt of EGFR inhibitor, crystal form thereof, preparation method therefor and application thereof” (Wuxi Shuangliang Biotechnology Co., Ltd., priority 2017, dated 2020).
Converted amounts (≈) assume the structure as drawn. Where a name gives a salt, the structure may show the parent alone.

How the values were obtained:
Format in all cases: physicochemical
[1] = Hygroscopicity study of crystal forms (Chinese Pharmacopoeia 2015, part 4, appendix 9103); conditions: for Hygroscopicity as compared with that of the EGFR inhibitor present in a free base form: 25° C./RH 80%; for Weight gain over 6 hours (%) / Weight gain over 24 hours (%) / Hygroscopicity: 25° C.±1° C., relative humidity 80%±2%; for Hygroscopicity: Pharmacopoeia class
Procedure: Hygroscopicity comparison study was carried out for various pharmaceutically acceptable salts of EGFR inhibitor present in the form of crystal in Examples 1 to 3 and 5 to 6, the amorphous EGFR inhibitor phosphate salt in Example 4, and the EGFR inhibitor present in a free base form. Tests were conducted according to the method in the Pharmacopoeia of the People's Republic of China, 2015 edition, part 4, appendix 9103 (temperature: 25° C.±1° C., relative humidity: 80%±2%), and the results were as shown in Table 6.
With regard to the description of hygroscopic properties and definition of hygroscopic weight gain, refer to the Pharmacopoeia of the People's Republic of China, 2015 edition, part 4, appendix 9103, experimental guideline of drug hygroscopicity, herein descried by way of example as follows.
Deliquescence: absorb enough water to form a liquid.
Very hygroscopic: hygroscopic weight gain […] 15%.
Hygroscopic: hygroscopic weight gain less than 15% but not less than 2%.
Non- or almost non-hygroscopic: hygroscopic weight gain less than 0.2%.

[2] = Solubility study in water (saturated solutions, HPLC linear equation; Pharmacopoeia and BCS classification); conditions: for BCS level (Do): Do=(Mo/Vo)/Cs, Mo 80 mg, Vo about 250 ml, Do≤1 solubility high, Do>1 low; for Solubility in water, 1 h / Solubility in water, 4 h / Solubility in water, 24 h: saturated solution; for Solubility in water, 1 h: standing 1 hour; for Solubility in water, 4 h: standing 4 hours; for Solubility in water, 24 h: standing 24 hours
Source text: (§1) Various pharmaceutically acceptable salts of EGFR inhibitor present in form of crystal in Examples 1 to 3 and 5 to 6 were classified with reference to the relevant requirements of the Pharmacopoeia of the People's Republic of China and the Bio-pharmaceutics Classification System (BCS).
(§2) (a) Relevant Requirements of Solubility in the Pharmacopoeia of the People's Republic of China, 2015 Edition, General Notices:
(§3) (b) Relevant Requirements of Solubility in BCS: Do=(Mo/Vo)/Cs;
(§4) wherein Do: dose index; Mo: highest single dose of the drug (with reference to the relevant dose of osimertinib, tentatively set to 80 mg); Vo: the volume of body fluid required for dissolving the drug (about 250 ml); Cs: saturated solubility of the drug;
(§5) if Do≤1, solubility is high; and if Do>1, solubility is low.
(§6) Using an EGFR inhibitor free base as a control, linear regression was carried out by plotting peak area versus concentration, and the corresponding linear equation was obtained in the range of 0.025 to 1.5 mg/ml: A=19775.0411c+2.4256, r=1.0000.
Water was used as solvent. An appropriate amount of the EGFR inhibitor mesylate salt, p-toluenesulfonate salt, phosphate salt, hydrochloride salt and citrate salt prepared in Examples 1 to 3 and 5 to 6 was weighed, and prepared into saturated solutions. Samples were taken after standing for 1 hour, 4 hours, and 24 hours, respectively, and the concentration of each sample in saturation state was calculated according to the linear equation.

[3] = Solubility study in artificial gastric fluid (saturated solutions, HPLC linear equation; Pharmacopoeia and BCS classification); conditions: for Pharmacopoeia of the People's Republic of China Solubility level / Solubility in artificial gastric fluid, 1 h / Solubility in artificial gastric fluid, 4 h / Solubility in artificial gastric fluid, 24 h / BCS level (Do): artificial gastric fluid; for Solubility in artificial gastric fluid compared with water: artificial gastric fluid versus water; for Solubility in artificial gastric fluid, 1 h / Solubility in artificial gastric fluid, 4 h / Solubility in artificial gastric fluid, 24 h: saturated solution; for Solubility in artificial gastric fluid, 1 h: standing 1 hour; for Solubility in artificial gastric fluid, 4 h: standing 4 hours; for Solubility in artificial gastric fluid, 24 h: standing 24 hours; for BCS level (Do): Do=(Mo/Vo)/Cs, Mo 80 mg, Vo about 250 ml, Do≤1 solubility high, Do>1 low; for Degradation in the solubility study: water and artificial gastric fluid, up to 24 hours
Source text: as §1, §2, §3, §4, §5, §6
Artificial gastric fluid was used as solvent. An appropriate amount of the EGFR inhibitor mesylate salt (crystal form A), p-toluenesulfonate salt (crystal form B), phosphate salt (crystal form C), phosphate salt (amorphous), hydrochloride salt (crystal form C), and citrate salt (crystal form E) prepared in Examples 1 to 6 was weighed, and prepared into saturated solutions. Samples were taken after standing for 1 hour, 4 hours, and 24 hours, respectively, and the concentration of each sample in saturation state was calculated according to the linear equation.

[4] = One month accelerated stability study at 40° C./75% RH (shape, purity, XRPD); conditions: for XRPD pattern (0 month versus 1 month) / Appearance, 1 month / Purity (%), 1 month: after 1 month at 40° C./75% RH; for Appearance, 0 month / Purity (%), 0 month: start of study (0 month)
Procedure: The six pharmaceutically acceptable salts of EGFR inhibitor in Examples 1 to 6 were placed in a condition of 40° C./75% RH, and a one month accelerated stability study was carried out. Samples were taken at the end of 0 and 1 month respectively, and emphasis was placed upon the shape, purity and crystal form stability (XRPD pattern) of the samples.
Stable refers to no occurrence of degradation and no detection of transformation to other crystal forms by analytical means such as chromatography and XRPD.

[5] = Solubility study in water (saturated solutions, HPLC linear equation; Pharmacopoeia and BCS classification); conditions: in water and artificial gastric fluid
[6] = listed as citrate salt (crystal form E)
[7] = listed as hydrochloride salt (crystal form D)
[8] = listed as mesylate salt (crystal form A)
[9] = listed as p-toluenesulfonate salt (crystal form B)

Compound | Weight gain over 6 hours (%) [1] [%] | Weight gain over 24 hours (%) [1] [%] | Hygroscopicity [1] | Pharmacopoeia of the People's Republic of China Solubility level [2] | BCS level (Do) [2] | Solubility in water, 1 h [2] [mg/mL] | Solubility in water, 4 h [2] [mg/mL] | Solubility in water, 24 h [2] [mg/mL] | Pharmacopoeia of the People's Republic of China Solubility level [3] | Solubility in artificial gastric fluid compared with water [3] | Solubility in artificial gastric fluid, 1 h [3] [mg/mL] | Solubility in artificial gastric fluid, 4 h [3] [mg/mL] | Solubility in artificial gastric fluid, 24 h [3] [mg/mL] | BCS level (Do) [3] | Degradation in the solubility study [3] | XRPD pattern (0 month versus 1 month) [4] | Solubility with reference to Pharmacopoeia solubility classification [5] | further results
C=CC(=O)Nc1cc(Nc2nccc(-c3cn(C)c4cccnc34)n2)c(OC)cc1N(C)CCN(C)C [citrate salt] | 2.23 | 2.48 | hygroscopic | freely soluble | 0.0024 < 1 | 143.59 | 137.34 | 133.57 | freely soluble | higher solubility in artificial gastric fluid than in water | 168.51 | 196.47 | 176.88 | 0.0018 < 1 | no significant degradation | consistent | high | Hygroscopicity as compared with that of the EGFR inhibitor present in a free base form ([1]; listed as citrate salt crystal form E): comparable hygroscopicity; Appearance, 1 month [4, 6]: light grey solid; Purity (%), 1 month [4, 6]: 99.1%; Appearance, 0 month [4, 6]: light grey solid; Purity (%), 0 month [4, 6]: 98.9%
C=CC(=O)Nc1cc(Nc2nccc(-c3cn(C)c4cccnc34)n2)c(OC)cc1N(C)CCN(C)C [free base] | 1.7 | 2.2 | hygroscopic |  | 606.30 > 1 | <0.025 | <0.025 | <0.025 |  | higher solubility in artificial gastric fluid than in water | 0.84 (≈ 1680 µM) | 0.86 (≈ 1720 µM) | 0.71 (≈ 1420 µM) | 0.4515 < 1 | no significant degradation |  |  | 
C=CC(=O)Nc1cc(Nc2nccc(-c3cn(C)c4cccnc34)n2)c(OC)cc1N(C)CCN(C)C [hydrochloride salt] | 0.72 | 1.29 | slightly hygroscopic | sparingly soluble | 0.0302 < 1 | 13.43 | 11.09 | 10.59 | soluble | higher solubility in artificial gastric fluid than in water | 83.79 | 79.18 | 70.03 | 0.0046 < 1 | no significant degradation | consistent |  | Hygroscopicity as compared with that of the EGFR inhibitor present in a free base form ([1]; listed as hydrochloride salt crystal form D): lower hygroscopicity; Appearance, 1 month [4, 7]: tan solid; Purity (%), 1 month [4, 7]: 99.3%; Appearance, 0 month [4, 7]: tan solid; Purity (%), 0 month [4, 7]: 99.2%
C=CC(=O)Nc1cc(Nc2nccc(-c3cn(C)c4cccnc34)n2)c(OC)cc1N(C)CCN(C)C [mesylate salt] | 6.86 | 10.64 | hygroscopic | freely soluble | 0.0013 < 1 | 223.02 | 224.00 | 255.75 | freely soluble | higher solubility in artificial gastric fluid than in water | 248.77 | 370.37 | 379.12 | 0.0008 < 1 | no significant degradation | consistent | high | Hygroscopicity as compared with that of the EGFR inhibitor present in a free base form ([1]; listed as mesylate salt crystal form A): higher hygroscopicity; Appearance, 1 month [4, 8]: light brown solid; Purity (%), 1 month [4, 8]: 99.2%; Appearance, 0 month [4, 8]: light brown solid; Purity (%), 0 month [4, 8]: 99.0%
C=CC(=O)Nc1cc(Nc2nccc(-c3cn(C)c4cccnc34)n2)c(OC)cc1N(C)CCN(C)C [p-toluenesulfonate salt] | 0.04 | 0.04 |  | slightly soluble | 0.2057 < 1 | 1.82 | 1.78 | 1.56 | soluble | higher solubility in artificial gastric fluid than in water | 46.21 | 46.75 | 47.03 | 0.0068 < 1 | no significant degradation | consistent |  | Hygroscopicity as compared with that of the EGFR inhibitor present in a free base form ([1]; listed as p-toluenesulfonate salt crystal form B): lower hygroscopicity; Appearance, 1 month [4, 9]: light tan solid; Purity (%), 1 month [4, 9]: 98.7%; Appearance, 0 month [4, 9]: light tan solid; Purity (%), 0 month [4, 9]: 98.7%
C=CC(=O)Nc1cc(Nc2nccc(-c3cn(C)c4cccnc34)n2)c(OC)cc1N(C)CCN(C)C [phosphate salt (amorphous)] | 1.2 | 1.5 | slightly hygroscopic | freely soluble | 0.0034 < 1 | 88.32 | 92.14 | 94.56 | freely soluble | higher solubility in artificial gastric fluid than in water | 123.56 | 136.76 | 138.91 | 0.0023 < 1 | no significant degradation | consistent | high | Hygroscopicity as compared with that of the EGFR inhibitor present in a free base form ([1]; listed as amorphous phosphate salt): lower hygroscopicity; Appearance, 1 month [4]: light grey solid; Purity (%), 1 month [4]: 98.7%; Appearance, 0 month [4]: light grey solid; Purity (%), 0 month [4]: 98.9%
